From patent publication US8105431B2, “Subphthalocyanine derivative having phosphorus derivative as axially substituted group, method for manufacturing the same and optical film using the same” (Orient Chemical Industries, Ltd., priority 2008, dated 2012)

Legend:
Format in all cases: physicochemical
[1] = Absorption measurement in chloroform (maximum absorption wavelength, molar absorbance coefficient); conditions: for Molar Absorbance Coefficient: 1 cm cell
Protocol: Measuring methods of the molar absorbance coefficient of the subphthalocyanine derivatives having the phosphorus derivative-substituted group obtained in the Examples 1-9 and the halo boron subphthalocyanine obtained in Synthesis Examples 1-4 were carried out as follows.
10.0 mg of the obtained compound was completely dissolved in 100 ml of chloroform. Then 10 ml of the solution was diluted with 100 ml of chloroform. Thus the absorbance of the obtained solution was measured using spectrophotometer (UV-1700 available from Shimadzu Corporation). Molar absorbance coefficient • was calculated using the following equation: A=•×C×l (A: absorbance, C: concentration (mol/L), l: light path (cm)) In the measurement, light pass length of the cell is 1 cm long.

[2] = Solubility to methyl ethyl ketone; conditions: for solubility (in words): compared with the halo boron intermediate compounds
[3] = Dissolution in coating solution for film manufacture; conditions: 0.5 parts in 68.5 parts cyclohexanone and 30 parts methyl ethyl ketone with 1.0 parts polycarbonate
Protocol: 0.5 parts of Compound 1 obtained in Example 1 and 1.0 parts of polycarbonate were added into 68.5 parts of cyclohexanone and 30 parts of methyl ethyl ketone and stirred and dissolved to obtain a coating solution.
A film was manufactured in the same way as in Example 10 except that Intermediate Compound 1 obtained in Synthesis Example 1 was used in place of Compound 1 in Example 10.

Compound | Maximum Absorption Wavelength [1] [nm] | Molar Absorbance Coefficient [1] | Solubility ([2]; Solvent: Methyl Ethyl Ketone) [wt %] | dissolution in coating liquid [3] | solubility (in words) ([2]; methyl ethyl ketone) | Solubility ([2]; methyl ethyl ketone)
ClB1n2c3c4ccccc4c2/N=C2N=C(/N=c4/c5ccccc5c(n41)=N3)c1ccccc1\2 [Intermediate Compound 1, SubPcBCl, reference compound] | 565.0 | 5.10 ×10^−4 Lmol^−1cm^−1 | 0.003 | could not be fully dissolved |  | 
O=P(OB1n2c3c4ccccc4c2/N=C2N=C(/N=c4/c5ccccc5c(n41)=N3)c1ccccc1\2)(c1ccccc1)c1ccccc1 [Compound 1, SubPcBOPOPh2] | 564.0 | 7.69 ×10^−4 Lmol^−1cm^−1 | 0.44 |  | remarkably improved | 
CCCCOP(=O)(OCCCC)OB1n2c3c4ccccc4c2/N=C2N=C(/N=c4/c5ccccc5c(n41)=N3)c1ccccc1\2 [Compound 4, SubPcBOPO(OBu)2] | 562.5 | 7.78 ×10^−4 Lmol^−1cm^−1 | >10 |  | remarkably improved | more than 10 % by weight
(t-Bu)3 SubPcBCl [Intermediate Compound 2, reference compound] |  |  | >10 |  |  | 
O=P(OB1n2c3c4ccccc4c2/N=C2N=C(/N=c4/c5ccccc5c(n41)=N3)c1ccccc1\2)(Oc1ccccc1)Oc1ccccc1 [Compound 3, SubPcBOPO(OPh)2] | 564.5 | 6.96 ×10^−4 Lmol^−1cm^−1 | 0.34 |  | remarkably improved | 
(PhS)3SubPcBOPO(OBu)2 [Compound 26] | 584.0 | 9.95 ×10^−4 Lmol^−1cm^−1 | >10 |  |  | 
(i-C5H11S)3 SubPcBCl [Intermediate Compound 6, reference compound] | 587.5 | 5.82 ×10^−4 Lmol^−1cm^−1 |  |  |  | 
(PhS)3SubPcBCl [Intermediate Compound 11, reference compound] | 586.0 | 7.58 ×10^−4 Lmol^−1cm^−1 |  |  |  | 
(t-Bu)3SubPcBOPOPh2 [Compound 5] | 570.5 | 8.74 ×10^−4 Lmol^−1cm^−1 | >10 |  |  | 
(t-Bu)3SubPcBOPO(OBu)2 [Compound 7] | 568.0 | 7.62 ×10^−4 Lmol^−1cm^−1 | >10 |  |  | 
(i-C5H11S)3SubPcBOPOPh2 [Compound 11] | 586.0 | 7.12 ×10^−4 Lmol^−1cm^−1 | >10 |  |  | 
(PhS)3SubPcBOPOPh2 [Compound 24] | 584.5 | 7.24 ×10^−4 Lmol^−1cm^−1 | >10 |  |  | 
(i-C5H11S)3SubPcBOPO(OPh)2 [Compound 13] | 586.5 | 8.20 ×10^−4 Lmol^−1cm^−1 |  |  |  | 
